Source: DBAASP
Values after ≈ are worked out from the molar mass of the structure shown.

Columns and labels:
Test in all cases: ≥ marks a high value that may be exact or a test limit, other limits are often not marked, values filed in µg/mL are converted to µM
[1] = test system: Staphylococcus aureus ATCC BAA-1556
Bacillus subtilis = test system: Bacillus subtilis
Candida albicans = test system: Candida albicans
Escherichia coli = test system: Escherichia coli
Staphylococcus aureus = test system: Staphylococcus aureus
[2] = test system: Acinetobacter baumannii ATCC 19606
Acinetobacter baumannii = test system: Acinetobacter baumannii
[3] = test system: Escherichia coli ATCC 25922
[4] = test system: Klebsiella pneumoniae ATCC 13883
Klebsiella pneumoniae = test system: Klebsiella pneumoniae
[5] = test system: Pseudomonas aeruginosa ATCC 27853
Pseudomonas aeruginosa = test system: Pseudomonas aeruginosa
[6] = test system: Staphylococcus aureus ATCC 25923
[7] = test system: Enterococcus faecalis ATCC 29212
[8] = test system: Escherichia coli DH5alpha
[9] = test system: Salmonella enterica subsp. enterica serovar Typhimurium ATCC 14028

Compound	MIC [1] [µM]	MIC (Bacillus subtilis) [µM]	MIC (Escherichia coli) [µM]	also measured
CC(C)C[C@H](NC(=O)[C@H](CC(C)C)NC(=O)[C@H](CCCCN)NC(=O)[C@H](CC(C)C)NC(=O)[C@H](CC(C)C)NC(=O)[C@H](CC(C)C)NC(=O)[C@H](CC(C)C)NC(=O)[C@H](CC(C)C)NC(=O)[C@@H](N)CCCCN)C(N)=O [KLLLLLKLL]	≥ 100	–	–	–
CC[C@H](C)[C@H](NC(=O)[C@H](Cc1c[nH]c2ccccc12)NC(=O)[C@H](CCCN=C(N)N)NC(=O)[C@H](CC(C)C)NC(=O)[C@H](Cc1c[nH]c2ccccc12)NC(=O)[C@@H](N)CCCCN)C(=O)N[C@@H](CCCN=C(N)N)C(=O)N[C@@H](Cc1c[nH]c2ccccc12)C(=O)N[C@@H](CC(C)C)C(N)=O [KWLRWIRWL]	6.25 (≈ 8.47 µg/mL)	–	–	–
CC[C@H](C)[C@@H]1NC(=O)[C@H](CC(C)C)NC(=O)[C@H](CCC(N)=O)NC(=O)[C@H](Cc2ccc(O)cc2)NC(=O)[C@H](C)NC(=O)[C@@H](NC(=O)[C@H](CCCCN)NC(=O)[C@@H](NC(=O)[C@H](CC(C)C)NC(=O)[C@@H](NC(=O)[C@H](Cc2ccccc2)NC(=O)[C@H](CC(C)C)NC(=O)CN)[C@@H](C)O)[C@@H](C)CC)CSSC[C@@H](C(=O)N[C@@H](CC(N)=O)C(=O)O)NC(=O)[C@H](C)NC(=O)[C@H](C(C)C)NC(=O)[C@H]([C@@H](C)O)NC(=O)[C@@H]2CCCN2C(=O)[C@H](C)NC1=O [GLFTLIKCAYQLIAPTVACN]	–	16.6 (≈ 35.6 µg/mL)	16.6 (≈ 35.6 µg/mL)	MIC (Candida albicans): 4.16 µM (≈ 8.89 µg/mL); MIC (Staphylococcus aureus): 8.32 µM (≈ 17.8 µg/mL)
CC[C@H](C)[C@H](NC(=O)[C@H](Cc1c[nH]c2ccccc12)NC(=O)[C@H](CCCN=C(N)N)NC(=O)[C@H](CCCN=C(N)N)NC(=O)[C@H](C)NC(=O)[C@@H](N)CCCCN)C(=O)N[C@@H](CCCN=C(N)N)C(=O)N[C@@H](Cc1c[nH]c2ccccc12)C(=O)N[C@@H](CC(C)C)C(N)=O [KARRWIRWL]	25 (≈ 32.1 µg/mL)	–	–	–
CC[C@H](C)[C@H](NC(=O)[C@@H](N)CCCCN)C(=O)N[C@@H](C)C(=O)N[C@@H](CC(C)C)C(=O)N[C@@H](CCCCN)C(=O)N[C@@H](C)C(=O)N[C@@H](CC(C)C)C(=O)N[C@@H](CCCCN)C(=O)N[C@@H](C)C(=O)N[C@@H](CC(C)C)C(=O)N[C@@H](CCCCN)C(=O)N[C@@H](C)C(=O)N[C@@H](CC(C)C)C(=O)NCC(=O)N[C@@H](CCCCN)C(=O)N[C@@H](C)C(=O)N[C@@H](CC(C)C)C(=O)N[C@@H](CCCCN)C(=O)N[C@@H](C)C(=O)N[C@@H](CC(C)C)C(N)=O [KIALKALKALKALGKALKAL]	–	–	32 (≈ 66 µg/mL)	MIC [2]: 2 µM (≈ 4.12 µg/mL); MIC (Acinetobacter baumannii): 22.6 µM (≈ 46.7 µg/mL); MIC [3]: 1.41 µM (≈ 2.92 µg/mL); MIC [4]: 2.83 µM (≈ 5.83 µg/mL); MIC (Klebsiella pneumoniae): 22.6 µM (≈ 46.7 µg/mL); MIC [5]: 11.3 µM (≈ 23.3 µg/mL); MIC (Pseudomonas aeruginosa): 32 µM (≈ 66 µg/mL); MIC [6]: 4 µM (≈ 8.25 µg/mL); MIC (Staphylococcus aureus): 2.83 µM (≈ 5.83 µg/mL)
CC(C)C[C@H](NC(=O)[C@H](CC(C)C)NC(=O)[C@H](CCCCN)NC(=O)[C@H](CC(C)C)NC(=O)[C@H](CC(C)C)NC(=O)[C@H](Cc1c[nH]c2ccccc12)NC(=O)[C@H](CCCCN)NC(=O)[C@@H](N)CC(C)C)C(N)=O [LKWLLKLL]	12.5 (≈ 12.8 µg/mL)	–	–	–
CC[C@H](C)[C@H](NC(=O)[C@H](CC(C)C)NC(=O)[C@H](C)NC(=O)[C@@H]1CCCN1C(=O)[C@H](CO)NC(=O)CN)C(=O)N[C@@H](CO)C(=O)N[C@@H](Cc1c[nH]c2ccccc12)C(=O)N[C@H](C(=O)N[C@@H](CCCCN)C(=O)N[C@@H](CCCN=C(N)N)C(=O)N[C@@H](CCCCN)C(=O)N[C@@H](CCCN=C(N)N)C(=O)N[C@@H](CCC(N)=O)C(=O)N[C@@H](CCC(N)=O)C(N)=O)[C@@H](C)CC [GSPALISWIKRKRQQ]	–	≥ 38.2	> 153	MIC (Staphylococcus aureus): 50.9 µM (≈ 90 µg/mL)
CC[C@H](C)[C@H](N)C(=O)N[C@@H](CC(N)=O)C(=O)N[C@@H](Cc1c[nH]c2ccccc12)C(=O)N[C@@H](CCCCN)C(=O)N[C@@H](CCCCN)C(=O)N[C@H](C(=O)N[C@@H](Cc1ccccc1)C(=O)N[C@@H](CCC(=O)O)C(=O)N[C@@H](CCCCN)C(=O)N[C@H](C(=O)N[C@@H](CCCCN)C(=O)N[C@@H](CC(=O)O)C(=O)N[C@@H](CC(C)C)C(=O)N[C@H](C(N)=O)C(C)C)C(C)C)[C@@H](C)CC [INWKKIFEKVKDLV]	–	5 (≈ 8.8 µg/mL)	9 (≈ 15.8 µg/mL)	–
CC[C@H](C)[C@H](NC(=O)CN)C(=O)NCC(=O)N[C@@H](CCCCN)C(=O)N[C@@H](Cc1ccccc1)C(=O)N[C@@H](CC(C)C)C(=O)N[C@@H](CCCCN)C(=O)N[C@@H](CCCCN)C(=O)N[C@@H](C)C(=O)N[C@@H](CCCCN)C(=O)N[C@@H](CCCCN)C(=O)NCC(=O)N[C@H](C(=O)NCC(=O)N[C@@H](C)C(=O)N[C@H](C(=O)N[C@@H](CC(C)C)C(=O)N[C@@H](CCCCN)C(=O)N[C@H](C(=O)N[C@@H](CC(C)C)C(=O)N[C@H](C(=O)N[C@H](C(=O)NCC(=O)N[C@@H](CC(C)C)C(=O)O)[C@@H](C)O)[C@@H](C)O)C(C)C)C(C)C)[C@@H](C)CC [GIGKFLKKAKKGIGAVLKVLTTGL]	–	4 (≈ 9.76 µg/mL)	–	MIC [7]: 64 µM (≈ 156 µg/mL); MIC [8]: 1 µM (≈ 2.44 µg/mL); MIC [4]: 1 µM (≈ 2.44 µg/mL); MIC [5]: 2 µM (≈ 4.88 µg/mL); MIC [9]: 2 µM (≈ 4.88 µg/mL); MIC [6]: 2 µM (≈ 4.88 µg/mL)
CC[C@H](C)[C@H](NC(=O)[C@@H]1CCCN1C(=O)[C@H](CCSC)NC(=O)[C@@H](N)Cc1ccccc1)C(=O)N[C@@H](CC(C)C)C(=O)N[C@@H](CO)C(=O)N[C@H]1CSSC[C@@H](C(=O)O)NC(=O)[C@H](CCCN=C(N)N)NC(=O)[C@H](CCCCN)NC(=O)[C@H](Cc2ccccc2)NC(=O)[C@H](CCCN=C(N)N)NC(=O)[C@H](CO)NC1=O [FMPILSCSRFKRC]	–	23.6 (≈ 37.5 µg/mL)	2.95 (≈ 4.67 µg/mL)	MIC (Candida albicans): 0.693 µM (≈ 1.1 µg/mL); MIC (Staphylococcus aureus): 5.9 µM (≈ 9.36 µg/mL)
CC[C@H](C)[C@H](NC(=O)[C@H](CC(C)C)NC(=O)[C@H](C)NC(=O)[C@@H]1CCCN1C(=O)[C@H](CC(C)C)NC(=O)CN)C(=O)N[C@@H](CO)C(=O)N[C@@H](Cc1c[nH]c2ccccc12)C(=O)N[C@H](C(=O)N[C@@H](CCCCN)C(=O)N[C@@H](CCCN=C(N)N)C(=O)N[C@@H](CCCCN)C(=O)N[C@@H](CCCN=C(N)N)C(=O)N[C@@H](CC(C)C)C(N)=O)[C@@H](C)CC [GLPALISWIKRKRL]	–	0.394 (≈ 0.65 µg/mL)	6.9 (≈ 11.4 µg/mL)	MIC (Staphylococcus aureus): 1.57 µM (≈ 2.6 µg/mL)
CC(C)C[C@H](NC(=O)[C@H](CC(C)C)NC(=O)[C@H](CCCCN)NC(=O)[C@H](CC(C)C)NC(=O)[C@H](CC(C)C)NC(=O)[C@H](Cc1c[nH]c2ccccc12)NC(=O)[C@H](CCCCN)NC(=O)[C@H](CC(C)C)NC(=O)[C@H](CC(C)C)NC(=O)[C@@H](N)CCCCN)C(N)=O [KLLKWLLKLL]	3.13 (≈ 3.96 µg/mL)	–	–	–
CC[C@H](C)[C@H](NC(=O)[C@H](Cc1c[nH]c2ccccc12)NC(=O)[C@H](C)NC(=O)[C@H](CCCN=C(N)N)NC(=O)[C@H](Cc1c[nH]c2ccccc12)NC(=O)[C@@H](N)CCCCN)C(=O)N[C@@H](CCCN=C(N)N)C(=O)N[C@@H](Cc1c[nH]c2ccccc12)C(=O)N[C@@H](CC(C)C)C(N)=O [KWRAWIRWL]	12.5 (≈ 16.4 µg/mL)	–	–	–

The next lines start with results.

MIC [1] [µM]	MIC (Bacillus subtilis) [µM]	MIC (Escherichia coli) [µM]	Compound	also measured
≥ 100	–	–	CC[C@H](C)[C@H](NC(=O)[C@H](Cc1c[nH]c2ccccc12)NC(=O)[C@@H](N)CCCN=C(N)N)C(=O)N[C@@H](CCCN=C(N)N)C(=O)N[C@@H](Cc1c[nH]c2ccccc12)C(=O)N[C@@H](CC(C)C)C(N)=O [RWIRWL]	–
3.13 (≈ 3.34 µg/mL)	–	–	CC(C)C[C@H](NC(=O)[C@H](CC(C)C)NC(=O)[C@H](CC(C)C)NC(=O)[C@H](CCCCN)NC(=O)[C@H](CC(C)C)NC(=O)[C@H](CC(C)C)NC(=O)[C@H](CCCCN)NC(=O)[C@H](CC(C)C)NC(=O)[C@@H](N)CC(C)C)C(N)=O [LLKLLKLLL]	–
≥ 100	–	–	CC(C)C[C@H](NC(=O)[C@H](CCCCN)NC(=O)[C@H](CC(C)C)NC(=O)[C@H](CC(C)C)NC(=O)[C@H](CC(C)C)NC(=O)[C@H](CCCCN)NC(=O)[C@H](CC(C)C)NC(=O)[C@@H](N)CC(C)C)C(N)=O [LLKLLLKL]	–
≥ 100	–	–	CC(C)C[C@H](NC(=O)[C@H](CCCCN)NC(=O)[C@H](CC(C)C)NC(=O)[C@H](CC(C)C)NC(=O)[C@H](CC(C)C)NC(=O)[C@H](CC(C)C)NC(=O)[C@H](CCCCN)NC(=O)[C@H](CC(C)C)NC(=O)[C@@H](N)CC(C)C)C(N)=O [LLKLLLLKL]	–
≥ 100	–	–	CC(C)C[C@H](NC(=O)[C@H](CCCCN)NC(=O)[C@H](CC(C)C)NC(=O)[C@H](CC(C)C)NC(=O)[C@H](CC(C)C)NC(=O)[C@H](CCCCN)NC(=O)[C@H](CC(C)C)NC(=O)[C@H](CC(C)C)NC(=O)[C@@H](N)CC(C)C)C(N)=O [LLLKLLLKL]	–
6.25 (≈ 9.48 µg/mL)	–	–	CC(C)C[C@H](NC(=O)[C@H](Cc1c[nH]c2ccccc12)NC(=O)[C@H](Cc1c[nH]c2ccccc12)NC(=O)[C@H](CCCN=C(N)N)NC(=O)[C@H](Cc1c[nH]c2ccccc12)NC(=O)[C@H](Cc1c[nH]c2ccccc12)NC(=O)[C@H](CC(C)C)NC(=O)[C@H](Cc1c[nH]c2ccccc12)NC(=O)[C@@H](N)Cc1c[nH]c2ccccc12)C(N)=O [WWLWWRWWL]	–
≥ 100	–	–	CC(C)[C@H](N)C(=O)N[C@H](C(=O)N[C@@H](CCCCN)C(=O)N[C@H](C(=O)N[C@H](C(=O)N[C@H](C(=O)N[C@@H](CCCCN)C(=O)N[C@H](C(=O)N[C@H](C(N)=O)C(C)C)C(C)C)C(C)C)C(C)C)C(C)C)C(C)C [VVKVVVKVV]	–
